Experimental data reported in patent US20140155371A1, “MULTICOMPONENT CRYSTALLINE SYSTEM OF EZETIMIBE AND PROLINE” (BASF SE, priority 2011, published 2014).
Blank lines part the entries; values can stand above or below the compound they belong to.

Tests used:
[1] = Dynamic (water) vapor sorption (DVS); assay type: physicochemical
Description: Dynamic (water) vapor sorption (DVS) is a method well known in the art to monitor the adsorption of water on a solid material. Therefore, DVS is a suitable method to determine the hygroscopic nature of a pharmaceutical active ingredient.
The crystalline form A described in WO 06/060808 (i.e. the free base) and the present composition (as obtained in example 3 further below) are subjected to a DVS experiment; results are shown in FIG. 4 and in the below Table 1. The crystalline composition is less prone to water uptake under humidity, and is easy to formulate compared to the crystalline anhydrous (“free base”) form of Ezetimibe (see Table 1).
Dynamic (water) vapour sorption (DVS) is performed with a Surface Measurement Systems Ltd. DVS-1 water sorption analyzer or with SPS11-100n moisture sorption instrument from Projekt Meβtechnik, Ulm, Germany.
Program: The relative humidity is kept at starting value of 0% for 5 hours, then continuously scanned from 0% to 60%, kept constant at 60% for 4 hours, and then scanned to 0% relative humidity, and kept constant for 4 hours. The scanning change rate of relative humidity is 5% per hour.

[2] = system: LDL levels; details: Ezetimibe added to statin therapy; compared with 6% by doubling the dose of statins; cited from earlier work

Water vapor sorption: water content after 4 h at 60% r.h. ([1]; after 4 h at 60% r.h.): 4.3% | Water vapor sorption: water content after 10 h at 50% r.h. ([1]; after 10 h at 50% r.h.): 4.0% | water uptake ([1]; at 60% relative humidity, FIG. 4): about 4.3% | relative humidity at which hydrate formation starts ([1]; increasing ambient humidity, FIG. 4 dashed line): about 50%
SMILES: O=C1[C@H](CC[C@H](O)c2ccc(F)cc2)[C@@H](c2ccc(O)cc2)N1c1ccc(F)cc1 [1-(4-Fluorophenyl)-3(R)-[3-(4-fluorophenyl)-3(S)-hydroxypropyl]-4(S)-(4-hydroxyphenyl)azetidin-2-one]

SMILES: O=C1[C@H](CC[C@H](O)c2ccc(F)cc2)[C@@H](c2ccc(O)cc2)N1c1ccc(F)cc1 [Ezetimibe, 1-(4-Fluorophenyl)-3(R)-[3-(4-fluorophenyl)-3(S)-hydroxypropyl]-4(S)-(4-hydroxyphenyl)azetidin-2-one]
reduction in LDL levels [2]: 15%

relative humidity below which the hydrate begins to lose water ([1]; decreasing humidity, FIG. 4): about 25%
SMILES: O=C1[C@H](CC[C@H](O)c2ccc(F)cc2)[C@@H](c2ccc(O)cc2)N1c1ccc(F)cc1 [hydrate form]
